Results: patent US10570168B2, “2′ and/or 5′ amino-acid ester phosphoramidate 3′-deoxy adenosine derivatives as anti- cancer compounds” (NuCana plc, priority 2014, dated 2020)
Like-named read-outs stand apart in the source and are kept apart here.

Assays:
Assay type in all cases: cell-based
HL-60 = assay: CellTiterGlo viability assay, initial screening; details: Homo sapiens, read-out: IC50 (relative IC50)
Method: (§1) In vitro viability assays were performed to assess the effects of compounds on cell viability in 7 selected cell lines over 72 hr using the CellTiterGlo (CTG, Promega-G7573) assay. The tests were performed in duplicates with treatment of compounds at 9 points, 3.16 folds titration in 96 well plates over ˜72 hr. The compound starting concentrations were […]. Cell viability assay using CellTiterGlo in 96-well plate were performed. The compound treatment was 72 hrs, under standard growth conditions, and in duplicate. Compounds were dissolved to 40 mM with thawed […]. Compounds were serially diluted at 3.16 fold in thawed DMSO, and warmed to 37° C. before being dissolved in media (2 μl+200 μl). After compounds were dissolved in media (media was also warmed to 37° C.). Media containing compounds were warmed to 37° C. in incubator and then compounds in media were added to cell plates (50 μl+50 μl), in duplicates. The compounds final concentrations were from […] to 19.9 nM. All compound solubilities were checked and recorded again, then the plates were transferred to CO2 tissue culture incubator immediately and incubated for 3 days. DMSO final concentration is 0.5%.

MCF-7 = assay: CellTiterGlo viability assay, initial screening; details: Homo sapiens, read-out: IC50 (relative IC50)
Method: as §1

HepG2 = assay: CellTiterGlo viability assay, initial screening; details: Homo sapiens, read-out: IC50 (relative IC50)
Method: as §1

KG-1 [1] = assay: CellTiterGlo viability assay, initial screening; details: Homo sapiens, read-out: IC50 (relative IC50)
Method: as §1

K562 [2] = assay: CellTiterGlo viability assay, initial screening; details: Homo sapiens, read-out: IC50 (relative IC50)
Method: as §1

MOLT-4 [3] = assay: CellTiterGlo viability assay, initial screening; details: Homo sapiens, read-out: IC50 (relative IC50)
Method: as §1

CCRF-CEM = assay: CellTiterGlo viability assay, initial screening; details: Homo sapiens, read-out: IC50 (relative IC50)
Method: as §1

RL = assay: Solid tumour and haematological malignancy assay (CellTiterGlo); details: Homo sapiens; for IC50: read-out: IC50 (absolute IC50); for Emax: read-out: MI %
Method: (§2) In vitro viability assay were performed to assess the effects of compounds on cell viability in selected cell lines over 72 hr using the CellTiterGlo (CTG, Promega-G7573) assay. The tests were performed in duplicates with treatment of compounds at 9 points, 3.16 folds titration in 96 well plates over ˜72 hr. The compound starting concentrations were 198 mM. Cell viability assay using CellTiterGlo in 96-well plate were performed. Compound treatment 72 hrs, standard growth conditions, duplicates. Compounds were dissolved to 40 mM with thawed […]. Compounds were serially diluted at 3.16 fold in thawed DMSO, and warmed to 37° C. before being dissolved in media (20 μl+200 μl). After compounds were dissolved in media, media containing compounds were warmed to 37° C. in incubator and then compounds in media were added to cell plates ([…]) in duplicates. The compounds' final concentrations were from 198M to 19.9 nM. All compound solubilities were checked and recorded again, then the plates were transferred to CO2 tissue culture incubator immediately and incubated for 3 days. DMSO final concentration is 0.5%.

NCI-H929 = assay: as above; details: Homo sapiens; for IC50: read-out: IC50 (absolute IC50); for Emax: read-out: MI %
Method: as §2

MOLT-4 [4] = assay: as above; details: Homo sapiens; for IC50: read-out: IC50 (absolute IC50); for Emax: read-out: MI %
Method: as §2

KG-1 [5] = assay: as above; details: Homo sapiens; for IC50: read-out: IC50 (absolute IC50); for Emax: read-out: MI %
Method: as §2, with “The tests were performed in duplicates with treatment of compounds at 9 points, 3.16 folds titration in 96 well plates over ˜72 hr. The compound starting concentrations were 198 mM.” left out, “Compounds were serially diluted at 3.16 fold in thawed DMSO, and warmed to 37° C. before being dissolved in media (20 μl+200 μl).” left out, “The compounds' final concentrations were from 198M to 19.9 nM.” left out

MCF7 = assay: as above; details: Homo sapiens; for IC50: read-out: IC50 (absolute IC50); for Emax: read-out: MI %
Method: as §2, with “The tests were performed in duplicates with treatment of compounds at 9 points, 3.16 folds titration in 96 well plates over ˜72 hr. The compound starting concentrations were 198 mM.” left out, “Compounds were serially diluted at 3.16 fold in thawed DMSO, and warmed to 37° C. before being dissolved in media (20 μl+200 μl).” left out, “The compounds' final concentrations were from 198M to 19.9 nM.” left out

HT29 = assay: as above; details: Homo sapiens; for IC50: read-out: IC50 (absolute IC50); for Emax: read-out: MI %
Method: as §2, with “The tests were performed in duplicates with treatment of compounds at 9 points, 3.16 folds titration in 96 well plates over ˜72 hr. The compound starting concentrations were 198 mM.” left out, “Compounds were serially diluted at 3.16 fold in thawed DMSO, and warmed to 37° C. before being dissolved in media (20 μl+200 μl).” left out, “The compounds' final concentrations were from 198M to 19.9 nM.” left out

K562 [6] = assay: as above; details: Homo sapiens; for IC50: read-out: IC50 (absolute IC50); for Emax: read-out: MI %
Method: as §2, with “The tests were performed in duplicates with treatment of compounds at 9 points, 3.16 folds titration in 96 well plates over ˜72 hr. The compound starting concentrations were 198 mM.” left out, “Compounds were serially diluted at 3.16 fold in thawed DMSO, and warmed to 37° C. before being dissolved in media (20 μl+200 μl).” left out, “The compounds' final concentrations were from 198M to 19.9 nM.” left out

CCRFCEM = assay: as above; details: Homo sapiens, CCRF-CEM; for IC50: read-out: IC50 (absolute IC50); for Emax: read-out: MI %
Method: as §2, with “The tests were performed in duplicates with treatment of compounds at 9 points, 3.16 folds titration in 96 well plates over ˜72 hr. The compound starting concentrations were 198 mM.” left out, “Compounds were serially diluted at 3.16 fold in thawed DMSO, and warmed to 37° C. before being dissolved in media (20 μl+200 μl).” left out, “The compounds' final concentrations were from 198M to 19.9 nM.” left out

Compound | IC50 (HL-60; HL-60, 72 h) [µM] | IC50 (MCF-7; MCF7, 72 h) [µM] | IC50 (HepG2; HepG2, 72 h) [µM] | IC50 (KG-1 [1]; KG-1, 72 h) [µM] | IC50 (K562 [2]; K562, 72 h) [µM] | IC50 (MOLT-4 [3]; MOLT-4, 72 h) [µM] | IC50 (CCRF-CEM; 72 h) [µM] | IC50 (RL; 72 h) [µM] | IC50 (NCI-H929; NCI-H929, 72 h) [µM] | IC50 (MOLT-4 [4]; MOLT-4, 72 h) [µM] | IC50 (KG-1 [5]; KG-1, 72 h) [µM] | IC50 (MCF7; MCF7, 72 h) [µM] | IC50 (HT29; HT-29, 72 h) [µM] | IC50 (K562 [6]; K562, 72 h) [µM] | IC50 (CCRFCEM; 72 h) [µM] | further results
C[C@H](NP(=O)(N[C@@H](C)C(=O)OCc1ccccc1)OC[C@@H]1CC(O)[C@H](n2cnc3c(N)ncnc32)O1)C(=O)OCc1ccccc1 (stereo in doubt) [Compound J, Benzyl 2-[({[5-(6-amino-9H-purin-9-yl)-4-hydroxyoxolan-2-yl]methoxy}({[1-(benzyloxy)-1-oxopropan-2-yl]amino})phosphoryl)amino]propanoate] | – | – | – | – | – | – | – | – | – | – | – | – | – | – | – | IC50 (HL-60; HL-60, 72 hr): 15 to 100 µM; IC50 (MCF-7; MCF7, MCF-7, 72 hr): 15 to 100 µM; IC50 (HepG2; HepG2, 72 hr): 15 to 100 µM; IC50 (KG-1 [1]; KG-1, 72 hr): 15 to 100 µM; IC50 (K562 [2]; K562, 72 hr): 15 to 100 µM; IC50 (MOLT-4 [3]; MOLT-4, 72 hr): 0.1 to 5 µM; IC50 (CCRF-CEM; 72 hr): 15 to 100 µM
COc1nc(N)c2ncn([C@@H]3O[C@H](CO)C[C@H]3O)c2n1 [2-OMe-Cordycepin, 3′-deoxy-2-methoxyadenosine, reference compound] | – | – | – | – | – | – | – | – | – | – | – | – | – | – | – | IC50 (RL; 72 hr): > 100 µM; Emax (RL; 72 hr): 0%; IC50 (NCI-H929; NCI-H929, 72 hr): > 100 µM; Emax (NCI-H929; NCI-H929, 72 hr): 51%; IC50 (MOLT-4 [4]; MOLT-4, 72 hr): > 100 µM; Emax (MOLT-4 [4]; MOLT-4, 72 hr): 1%; IC50 (KG-1 [5]; KG-1, 72 hr): > 100 µM; Emax (KG-1 [5]; KG-1, 72 hr): 1%; IC50 (MCF7; MCF7, 72 hr): > 100 µM; Emax (MCF7; MCF7, 72 hr): 8%; IC50 (HT29; HT-29, HT29, 72 hr): > 100 µM; Emax (HT29; HT-29, HT29, 72 hr): 19%; IC50 (K562 [6]; K562, 72 hr): > 100 µM; Emax (K562 [6]; K562, 72 hr): 40%; IC50 (CCRFCEM; CCRFCEM, 72 hr): > 100 µM; Emax (CCRFCEM; CCRFCEM, 72 hr): -4%
C[C@H](NP(=O)(Oc1cccc2ccccc12)O[C@@H]1C[C@@H](CO)O[C@H]1n1cnc2c(N)ncnc21)C(=O)OCc1ccccc1 (stereo partly drawn) [Compound I, (2S)-benzyl 2-(((((2R,3R,5S)-2-(6-amino-9H-purin-9-yl)-5-(hydroxymethyl)tetrahydro-furan-3-yl)oxy)(naphthalen-1-yloxy)phosphoryl)amino)propanoate] | 15 to 100 | 5 to 15 | 15 to 100 | 15 to 100 | 15 to 100 | 15 to 100 | 15 to 100 | – | – | – | – | – | – | – | – | –
CCCCCOC(=O)[C@H](CC(C)C)NP(=O)(OC[C@@H]1C[C@H](O)[C@H](n2cnc3c(N)nc(OC)nc32)O1)Oc1cccc2ccccc12 (stereo partly drawn) [Compound M] | – | – | – | – | – | – | – | 5 to 15 | 5 to 15 | 5 to 15 | 15 to 100 | 15 to 100 | 15 to 100 | 5 to 15 | 5 to 15 | Emax (RL; 72 h): 100%; Emax (NCI-H929; NCI-H929, 72 h): 99%; Emax (MOLT-4 [4]; MOLT-4, 72 h): 101%; Emax (KG-1 [5]; KG-1, 72 h): 102%; Emax (MCF7; MCF7, 72 h): 100%; Emax (HT29; HT-29, 72 h): 100%; Emax (K562 [6]; K562, 72 h): 100%; Emax (CCRFCEM; 72 h): 100%
CCCCCCOC(=O)[C@H](C)NP(=O)(OC[C@@H]1C[C@H](O)[C@H](n2cnc3c(N)nc(OC)nc32)O1)Oc1ccccc1 (stereo partly drawn) [Compound N, 2-O-methyl-3′-deoxyadenosine-5′-O-[phenyl(1-hexyloxy-L-alaninyl)] phosphate] | – | – | – | – | – | – | – | 15 to 100 | 15 to 100 | 15 to 100 | 15 to 100 | 15 to 100 | 15 to 100 | 15 to 100 | 15 to 100 | Emax (RL; 72 h): 88%; Emax (NCI-H929; NCI-H929, 72 h): 99%; Emax (MOLT-4 [4]; MOLT-4, 72 h): 97%; Emax (KG-1 [5]; KG-1, 72 h): 96%; Emax (MCF7; MCF7, 72 h): 73%; Emax (HT29; HT-29, 72 h): 69%; Emax (K562 [6]; K562, 72 h): 78%; Emax (CCRFCEM; 72 h): 93%
C[C@H](NP(=O)(Oc1ccccc1)O[C@@H]1C[C@@H](CO)O[C@H]1n1cnc2c(N)ncnc21)C(=O)OCc1ccccc1 (stereo partly drawn) [G, (2S)-benzyl 2-(((((2R,3R,5S)-2-(6-amino-9H-purin-9-yl)-5-(hydroxymethyl)tetrahydro-furan-3-yl)oxy)(phenoxy)phosphoryl)amino)propanoate] | 15 to 100 | 5 to 15 | 15 to 100 | 15 to 100 | 15 to 100 | 15 to 100 | 15 to 100 | – | – | – | – | – | – | – | – | –
C[C@H](NP(=O)(OC[C@@H]1C[C@@H](OP(=O)(N[C@@H](C)C(=O)OCc2ccccc2)Oc2ccccc2)[C@H](n2cnc3c(N)ncnc32)O1)Oc1ccccc1)C(=O)OCc1ccccc1 (stereo partly drawn) [H, Benzyl 2-(((((2S,4R,5R)-5-(6-amino-9H-purin-9-yl)-4-((((1-(benzyloxy)-1-oxopropan-2-yl)amino)(phenoxy)phosphoryl)oxy)tetrahydrofuran-2-yl)methoxy)(phenoxy)phosphoryl)-amino)propanoate] | 15 to 100 | 0.1 to 5 | 5 to 15 | 15 to 100 | 15 to 100 | 15 to 100 | 15 to 100 | – | – | – | – | – | – | – | – | –
COc1nc(N)c2ncn([C@@H]3O[C@H](COP(=O)(N[C@@H](C)C(=O)OCc4ccccc4)Oc4cccc5ccccc45)C[C@H]3O)c2n1 (stereo partly drawn) [K] | – | – | – | – | – | – | – | 15 to 100 | 5 to 15 | 15 to 100 | 15 to 100 | 5 to 15 | 15 to 100 | 15 to 100 | 5 to 15 | –
